Our source for the IC50 values is patent publication US11697646B2, “Triazole N-linked carbamoyl cyclohexyl acids as LPA antagonists” (BRISTOL-MYERS SQUIBB COMPANY, priority 2017, dated 2023).

In one experiment the target is T1, human LPA1 (Homo sapiens, UniProt Q92633).
T1 construct: expressed in transfected cells; host or cells: Chinese hamster ovary (CHO) cells
T1 sequence (Q92633 whole entry): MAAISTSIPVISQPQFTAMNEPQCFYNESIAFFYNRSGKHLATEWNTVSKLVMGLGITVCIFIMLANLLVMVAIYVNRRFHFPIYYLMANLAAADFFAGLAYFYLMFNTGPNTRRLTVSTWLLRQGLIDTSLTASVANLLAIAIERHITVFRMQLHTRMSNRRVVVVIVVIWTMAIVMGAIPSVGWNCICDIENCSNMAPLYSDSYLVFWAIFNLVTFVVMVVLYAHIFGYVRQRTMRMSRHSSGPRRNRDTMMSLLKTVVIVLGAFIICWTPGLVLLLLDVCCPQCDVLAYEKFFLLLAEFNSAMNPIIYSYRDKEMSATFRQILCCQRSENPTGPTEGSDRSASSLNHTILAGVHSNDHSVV
Briefly: LPA1 functional antagonist assay (calcium flux). The experiment is classed as cell-based. The following applies: CHO cells overexpressing human LPA1; calcium flux induced by 10 nM LPA; read-out: hLPA1 IC50. How it is done:
The effectiveness of compounds of the present invention as LPA1 inhibitors can be determined in an LPA1 functional antagonist assay as follows:
The cells were then equilibrated to room temperature for 30 minutes before the assay. […] IC50 values were determined by fitting data to a 4-parameter logistic equation (GraphPad Prism, San Diego Calif.).
`Cc1nc(-c2nnn(C)c2CNC(=O)OCC2CC2)ccc1O[C@H]1CCC[C@H](C(=O)O)C1` [Example 7, (1S,3S)-3-((6-(5-((((cyclopropylmethoxy)carbonyl)amino)methyl)-1-methyl-1H-1,2,3-triazol-4-yl)-2-methylpyridin-3-yl)oxy)cyclohexane-1-carboxylic acid]: the IC50 came to 47 nM. On the same count and under the same terms, under `Cc1nc(-c2nnn(C)c2CNC(=O)OCC2(C)CC2)ccc1O[C@H]1CCC[C@H](C(=O)O)C1` [Example 59, (1S,3S)-3-((2-methyl-6-(1-methyl-5-(((((1-methylcyclopropyl)methoxy)carbonyl)amino)methyl)-1H-1,2,3-triazol-4-yl)pyridin-3-yl)oxy)cyclohexane-1-carboxylic acid] stands 48 nM. The same measure, in the same setting: in the case of `Cc1nc(-c2nnn(C)c2CCNC(=O)OCC(C)(C)C)ccc1O[C@H]1CCC[C@H](C(=O)O)C1` [Example 104, (1S,3S)-3-((2-methyl-6-(1-methyl-5-(2-(((neopentyloxy)carbonyl)amino)ethyl)-1H-1,2,3-triazol-4-yl)pyridin-3-yl)oxy)cyclohexane-1-carboxylic acid] it was 1360 nM; in that of `CCc1nc(-c2nnn(C)c2CNC(=O)OCC(C)(C)C)ccc1O[C@H]1CCC[C@H](C(=O)O)C1` [Example 45, (1S,3S)-3-((2-ethyl-6-(1-methyl-5-((((neopentyloxy)carbonyl)amino)methyl)-1H-1,2,3-triazol-4-yl)pyridin-3-yl)oxy)cyclohexane-1-carboxylic acid], 94 nM; in that of `CCc1nc(-c2nnn(C)c2CNC(=O)NCC2CC2)ccc1O[C@H]1CCC[C@H](C(=O)O)C1` [Example 152, (1S,3S)-3-((6-(5-((3-(cyclopropyl-methyl)ureido)methyl)-1-methyl-1H-1,2,3-triazol-4-yl)-2-ethyl-pyridin-3-yl)oxy)cyclohexane-1-carboxylic acid], 270 nM. Same read-out and setting: under `Cc1nc(-c2nnn(C)c2NC(=O)OC(C)C2CC2)ccc1O[C@H]1CCC[C@H](C(=O)O)C1` (mixture of isomers) [Example 69, (1S,3S)-3-((6-(5-(((1-cyclopropyl-ethoxy)carbonyl)amino)-1-methyl-1H-1,2,3-triazol-4-yl)-2-methyl-pyridin-3-yl)oxy)cyclohexane-1-carboxylic acid] stands 85 nM; under `Cc1nc(-c2nnn(C)c2CNC(=O)N(C)Cc2ccccc2)ccc1O[C@H]1CCC[C@H](C(=O)O)C1` [Example 109, (1S,3S)-3-((6-(5-((3-benzyl-3-methyl-ureido)methyl)-1-methyl-1H-1,2,3-triazol-4-yl)-2-methylpyridin-3-yl)oxy)cyclohexanecarboxylic acid], 85 nM; under `CCC(C)CNC(=O)NCc1c(-c2ccc(O[C@H]3CCC[C@H](C(=O)O)C3)c(C)n2)nnn1C` (mixture of isomers) [Example 118, (1S,3S)-3-((2-methyl-6-(1-methyl-5-((3-(2-methylbutyl)ureido)methyl)-1H-1,2,3-triazol-4-yl)pyridin-3-yl)oxy)cyclo-hexane-1-carboxylic acid], 105 nM. With `Cc1nc(-c2nnn(C)c2NC(=O)OC2CCCCC2)ccc1O[C@H]1CCC[C@H](C(=O)O)C1` [Example 141, (1S,3S)-3-((6-(5-(((cyclohexyloxy)carbonyl)amino)-1-methyl-1H-1,2,3-triazol-4-yl)-2-methylpyridin-3-yl)oxy)cyclohexane-1-carboxylic acid], the IC50 is 78 nM. The same measure, in the same setting: under `CCCCOC(=O)Nc1c(-c2ccc(O[C@H]3CCC[C@H](C(=O)O)C3)c(C)n2)nnn1C` [Example 222, (1S,3S)-3-((6-(5-((butoxycarbonyl)amino)-1-methyl-1H-1,2,3-triazol-4-yl)-2-methylpyridin-3-yl)oxy)cyclohexane-1-carboxylic acid] stands 21 nM; under `Cc1nc(-c2nnn(C)c2NC(=O)OC2CCCC2)ccc1O[C@H]1CCC[C@H](C(=O)O)C1` [Example 66, (1S,3S)-3-((6-(5-(((cyclopentyloxy)carbonyl)amino)-1-methyl-1H-1,2,3-triazol-4-yl)-2-methylpyridin-3-yl)oxy)cyclohexane-1-carboxylic acid], 68 nM; under `Cc1nc(-c2nnn(C)c2CNC(=O)OCC2CCC2)c(F)cc1O[C@H]1CCC[C@H](C(=O)O)C1` [Example 212, (1S,3S)-3-((6-(5-((((cyclobutylmethoxy)carbonyl)amino)methyl)-1-methyl-1H-1,2,3-triazol-4-yl)-5-fluoro-2-methylpyridin-3-yl)oxy)cyclohexane-1-carboxylic acid], 112 nM. Still for that read-out and setting: under `CCCCNC(=O)NCc1c(-c2ccc(O[C@H]3CCC[C@H](C(=O)O)C3)c(CC)n2)nnn1C` [Example 151, (1S,3S)-3-((6-(5-((3-butyl-ureido)methyl)-1-methyl-1H-1,2,3-triazol-4-yl)-2-ethylpyridin-3-yl)oxy)cyclohexane-1-carboxylic acid] stands 647 nM. Same read-out and setting: in the case of `CCc1nc(-c2nnn(C)c2CNC(=O)OCc2ccccc2)ccc1O[C@H]1CCC[C@H](C(=O)O)C1` [Example 43, (1S,3S)-3-((6-(5-((((benzyloxy)carbonyl)amino)methyl)-1-methyl-1H-1,2,3-triazol-4-yl)-2-ethylpyridin-3-yl)oxy)cyclohexne-1-carboxylic acid] it was 8 nM; in that of `COCCCOC(=O)NCc1c(-c2ccc(O[C@H]3CCC[C@H](C(=O)O)C3)c(C)n2)nnn1C` [Example 53, (1S,3S)-3-((6-(5-((((3-methoxypropoxy)carbonyl)amino)methyl)-1-methyl-1H-1,2,3-triazol-4-yl)-2-methylpyridin-3-yl)oxy)cyclohexane-1-carboxylic acid], 342 nM; in that of `Cc1nc(-c2nnn(C)c2CNC(=O)O[C@H](C)c2ccccc2)ccc1O[C@H]1CCC[C@H](C(=O)O)C1` [Example 18, (1S,3S)-3-((2-methyl-6-(1-methyl-5-(((((R)-1-phenylethoxy)carbonyl)amino)methyl)-1H-1,2,3-triazol-4-yl)pyridin-3-yl)oxy)cyclohexane-1-carboxylic acid], 12 nM. In the case of `Cc1nc(-c2nnn(C)c2CNC(=O)OCCc2ccccc2)ccc1O[C@H]1CCC[C@H](C(=O)O)C1` [Example 16, (1S,3S)-3-((2-methyl-6-(1-methyl-5-(((phenethoxycarbonyl)amino)methyl)-1H-1,2,3-triazol-4-yl)pyridin-3-yl)oxy)cyclohexane-1-carboxylic acid], the IC50 came to 32 nM. On the same count and under the same terms, under `Cc1nc(-c2nnn(C)c2CNC(=O)N(C)CCC(C)C)ccc1O[C@H]1CCC[C@H](C(=O)O)C1` [Example 116, (1S,3S)-3-((6-(5-((3-isopentyl-3-methyl-ureido)methyl)-1-methyl-1H-1,2,3-triazol-4-yl)-2-methylpyridin-3-yl)oxy)cyclohexane-1-carboxylic acid] stands 92 nM. Same read-out and setting: in the case of `CCCOC(=O)NCc1c(-c2ccc(O[C@H]3CCC[C@H](C(=O)O)C3)c(C(F)F)n2)nnn1C` [Example 101, (1S,3S)-3-((2-(difluoromethyl)-6-(1-methyl-5-(((propoxycarbonyl)amino)methyl)-1H-1,2,3-triazol-4-yl)pyridin-3-yl)oxy)cyclohexane-1-carboxylic acid] it was 2030 nM; in that of `Cc1nc(-c2nnn(C)c2NC(=O)O[C@H](C)c2ccccc2)ccc1O[C@H]1CCC[C@H](C(=O)O)C1` [Example 72, (1S,3S)-3-((2-methyl-6-(1-methyl-5-((((R)-1-phenylethoxy)carbonyl)amino)-1H-1,2,3-triazol-4-yl)pyridin-3-yl)oxy)cyclohexane-1-carboxylic acid], 26 nM. On the same count and under the same terms, in the case of `Cc1nc(-c2nnn(C)c2CNC(=O)N(C)CCC2CC2)ccc1O[C@H]1CCC[C@H](C(=O)O)C1` [Example 114, (1S,3S)-3-((6-(5-((3-(2-cyclopropyl-ethyl)-3-methylureido)methyl)-1-methyl-1H-1,2,3-triazol-4-yl)-2-methylpyridin-3-yl)oxy)cyclohexane-1-carboxylic acid] it was 112 nM; in that of `CC(C)COC(=O)NCc1c(-c2ccc(O[C@H]3CCC[C@H](C(=O)O)C3)c(C(F)(F)F)n2)nnn1C` [Example 93, (1S,3S)-3-((6-(5-(((isobutoxy-carbonyl)amino)methyl)-1-methyl-1H-1,2,3-triazol-4-yl)-2-(trifluoro-methyl)pyridin-3-yl)oxy)cyclohexane-1-carboxylic acid], 25 nM; in that of `Cc1nc(-c2nnn(C)c2NC(=O)N[C@H](C)C2CC2)ccc1O[C@H]1CCC[C@H](C(=O)O)C1` [Example 146, (1S,3S)-3-((6-(5-(3-((R)-1-cyclopropylethyl)ureido)-1-methyl-1H-1,2,3-triazol-4-yl)-2-methylpyridin-3-yl)oxy)cyclohexane-1-carboxylic acid], 306 nM.

Staying with this experiment, now noted: human LPA1 functional antagonist assay; read-out: hLPA1 IC50.
Turning to `Cc1nc(-c2nnn(C)c2CNC(=O)O[C@H](C)C2CC2)ccc1O[C@H]1CCC[C@H](C(=O)O)C1` [Example 167, (1S,3S)-3-((6-(5-(((((R)-1-cyclo-propylethoxy)carbonyl)amino)methyl)-1-methyl-1H-1,2,3-triazol-4-yl)-2-methylpyridin-3-yl)oxy)cyclohexane-1-carboxylic acid], the IC50 turned out to be 427 nM. Still for that read-out and setting: under `Cc1nc(-c2nnn(C)c2CNC(=O)O[C@@H](C)C(C)C)ccc1O[C@H]1CCC[C@H](C(=O)O)C1` [Example 173, (1S,3S)-3((2-methyl-6-(1-methyl-5-((((((S)-3-methylbutan-2-yl)oxy)carbonyl)amino)methyl)-1H-1,2,3-triazol-4-yl)pyridin-3-yl)oxy)cyclohexane-1-carboxylic acid] stands 167 nM; under `CC(COC(=O)NCc1c(-c2ncc(O[C@H]3CCC[C@H](C(=O)O)C3)cn2)nnn1C)CC(F)(F)F` (stereo partly drawn) [Example 154, (1S,3S)-3-((2-(1-methyl-5-((((4,4,4-trifluoro-2-methylbutoxy)carbonyl)amino)methyl)-1H-1,2,3-triazol-4-yl)pyrimidin-5-yl)oxy)cyclohexane-1-carboxylic acid], 2900 nM.
